# Measured values: ChEMBL document CHEMBL4152333, “Structure-activity relationships in fungal nucleobases transporters as dissected by the inhibitory effects of novel purine analogues” (Eur J Med Chem, 2018)
# Activity calls are given as the source filed them. The rule behind the calls is not given here.
# How the values were obtained:
# [1] = biological target: Uric acid-xanthine permease (Emericella nidulans (strain FGSC A4 / ATCC 38163 / CBS 112.46 / NRRL194 / M139) (Aspergillus nidulans)) (UniProt Q07307); assay: Inhibition of fungal UapA expressed in Aspergillus nidulans assessed as reduction in UapA-mediated [8-3H]-xanthine accumulation at 0.5 mM; conditions: Fungi
# Chain of Uric acid-xanthine permease (Emericella nidulans (strain FGSC A4 / ATCC 38163 / CBS 112.46 / NRRL194 / M139) (Aspergillus nidulans)) (Q07307 whole entry, looked up): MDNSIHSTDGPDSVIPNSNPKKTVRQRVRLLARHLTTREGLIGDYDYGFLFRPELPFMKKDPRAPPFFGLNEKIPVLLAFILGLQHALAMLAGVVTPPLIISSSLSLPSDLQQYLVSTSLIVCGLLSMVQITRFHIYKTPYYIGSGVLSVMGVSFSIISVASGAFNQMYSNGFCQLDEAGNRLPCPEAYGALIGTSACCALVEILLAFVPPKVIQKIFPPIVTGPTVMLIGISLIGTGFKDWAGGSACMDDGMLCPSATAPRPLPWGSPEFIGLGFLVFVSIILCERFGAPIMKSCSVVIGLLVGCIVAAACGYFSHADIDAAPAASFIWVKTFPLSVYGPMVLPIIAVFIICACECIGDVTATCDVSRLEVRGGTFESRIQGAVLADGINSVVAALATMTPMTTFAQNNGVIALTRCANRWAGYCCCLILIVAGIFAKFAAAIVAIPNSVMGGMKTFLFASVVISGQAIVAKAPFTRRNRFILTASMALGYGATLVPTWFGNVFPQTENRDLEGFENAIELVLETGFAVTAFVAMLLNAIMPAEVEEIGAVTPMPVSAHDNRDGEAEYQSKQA
# [2] = test system: Fungi; assay: Inhibition of fungal FcyB expressed in Aspergillus nidulans assessed as reduction in FcyB-mediated at 0.5 mM
# [3] = Inhibition of fungal FcyB expressed in Aspergillus nidulans assessed as reduction in FcyB-mediated [2,8-3H]-adenine accumulation; parameters: species or system Fungi
# [4] = biological target: T1, Uncharacterized protein (Emericella nidulans (strain FGSC A4 / ATCC 38163 / CBS 112.46 / NRRL194 / M139) (Aspergillus nidulans)) (UniProt G5EB00); assay: Inhibition of fungal AzgA expressed in Aspergillus nidulans assessed as reduction in AzgA-mediated [2,8-3H]-adenine accumulation at 0.5 mM; conditions: Fungi
# T1 sequence (whole entry): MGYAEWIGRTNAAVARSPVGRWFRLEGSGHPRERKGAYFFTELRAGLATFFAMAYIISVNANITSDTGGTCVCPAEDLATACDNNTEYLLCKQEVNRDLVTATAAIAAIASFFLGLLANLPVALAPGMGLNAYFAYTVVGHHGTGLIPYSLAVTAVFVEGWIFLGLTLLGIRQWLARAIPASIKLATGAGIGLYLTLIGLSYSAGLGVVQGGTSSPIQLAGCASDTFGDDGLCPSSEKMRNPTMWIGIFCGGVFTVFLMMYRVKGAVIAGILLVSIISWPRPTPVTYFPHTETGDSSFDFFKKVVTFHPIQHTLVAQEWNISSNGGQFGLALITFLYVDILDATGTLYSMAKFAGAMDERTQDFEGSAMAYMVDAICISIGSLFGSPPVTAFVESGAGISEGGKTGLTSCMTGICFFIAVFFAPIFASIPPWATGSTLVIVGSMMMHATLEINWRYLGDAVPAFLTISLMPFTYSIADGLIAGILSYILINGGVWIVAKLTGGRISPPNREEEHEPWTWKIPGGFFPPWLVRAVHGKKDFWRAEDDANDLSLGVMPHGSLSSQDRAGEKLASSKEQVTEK
# [5] = test system: Fungi; assay: Inhibition of fungal FcyB expressed in Aspergillus nidulans assessed as FcyB-mediated [2,8-3H]-adenine accumulation rate at 500 uM relative to untreated control; parameters: scale not given: the % may be the effect or the level left
# [6] = biological target: T2, Uncharacterized protein (Emericella nidulans (strain FGSC A4 / ATCC 38163 / CBS 112.46 / NRRL194 / M139) (Aspergillus nidulans), UniProt G5EB00); assay: Inhibition of fungal AzgA expressed in Aspergillus nidulans assessed as reduction in AzgA-mediated [2,8-3H]-adenine accumulation; parameters: species or system Fungi
# T2 sequence (G5EB00 whole entry): T1 sequence (whole entry)
SMILES,inhibition [1],Ki [3] [µM],other results
Nc1ccnc2c1nc(-c1ccncc1)n2Cc1ccccc1,inactive,–,inhibition [2]: inactive
O=c1[nH]cnc2nc[nH]c12 [HYPOXANTHINE],–,11,–
CN1CCN(c2nccc3[nH]c(-c4ccc([N+](=O)[O-])cc4)nc23)CC1,inactive,106,inhibition [4]: Active
CN1CCN(c2nccc3[nH]c(O)nc23)CC1,inactive,19,Activity [5]: < 10%
Nc1ccnc2c1nc(-c1ccc([N+](=O)[O-])cc1)n2Cc1ccccc1,inactive,–,inhibition [2]: inactive
CN1CCN(c2nccc3c2nc(-c2ccccc2O)n3Cc2ccccc2O)CC1,inactive,–,inhibition [2]: inactive
CN1CCN(c2nccc3[nH]c(S)nc23)CC1,inactive,–,–
Nc1ccnc2c1nc(O)n2Cc1ccccc1,inactive,–,inhibition [2]: inactive
c1ccc(CNc2nccc3[nH]c(-c4ccncc4)nc23)cc1,inactive,72,Activity [5]: < 10%; inhibition [4]: Active
COc1ccc(OC)c(-c2nc3c(N4CCN(C)CC4)nccc3[nH]2)c1,inactive,100,Activity [5]: < 10%
CN1CCN(c2nccc3[nH]c(-c4ccncc4)nc23)CC1,inactive,–,–
Nc1[nH]cnc2ncnc1-2 [ADENINE],–,7,–
CC(C)n1cnc2c(NCc3ccccc3)nccc21,–,5,–
COc1ccc(OC)c(-c2nc3c(N)ccnc3n2Cc2ccccc2)c1,inactive,–,inhibition [2]: inactive
CN1CCN(c2nccc3c2ncn3C2CCCC2)CC1,–,38,–
O=[N+]([O-])c1ccc(-c2nc3c(NCc4ccccc4)nccc3[nH]2)cc1,inactive,–,–
CN1CCN(c2nccc3c2nc(-c2ccncc2)n3Cc2ccncc2)CC1,inactive,–,–
Oc1ccccc1-c1nc2c(NCc3ccccc3)nccc2[nH]1,inactive,82,Activity [5]: < 10%; Ki [6]: 58 µM; inhibition [4]: Active
Nc1ccnc2c1nc(S)n2Cc1ccccc1,inactive,–,inhibition [2]: inactive
Nc1ccnc2c1nc(-c1ccccc1O)n2Cc1ccccc1,inactive,–,inhibition [2]: inactive
Oc1nc2c(NCc3ccccc3)nccc2[nH]1,inactive,74,–
Sc1nc2c(NCc3ccccc3)nccc2[nH]1,inactive,–,–
CN1CCN(c2nccc3[nH]c(-c4ccccc4O)nc23)CC1,inactive,49,Activity [5]: < 10%
COc1ccc(OC)c(-c2nc3c(NCc4ccccc4)nccc3[nH]2)c1,inactive,42,Activity [5]: < 10%; inhibition [4]: Active
